The values that follow are results of earlier work, collected in patent publication US6413525B1, “Methods of exfoliation using N-acetyl glucosamine” (Color Access, Inc., priority 1999, dated 2002).

For the data set, the system named is skin. The conditions noted are these: as disclosed in WO97/12597.

`CC(=O)N[C@H]1C(O)O[C@H](CO)[C@@H](O)[C@@H]1O` (stereo partly drawn) [N-acetyl-D-glucosamine]: the “efficacy as a topical desquamating agent” value is reported as “not found to be effective”.
